The target of experiment [1] is T1, AHR (Homo sapiens, UniProt P35869).
T1 construct: U87 MG glioblastoma cells (ATCC #HTB-14) endogenously expressing AHR; endogenous in cells; host or cells: U87 MG glioblastoma cells (ATCC #HTB-14)
T1 sequence (P35869 11-848): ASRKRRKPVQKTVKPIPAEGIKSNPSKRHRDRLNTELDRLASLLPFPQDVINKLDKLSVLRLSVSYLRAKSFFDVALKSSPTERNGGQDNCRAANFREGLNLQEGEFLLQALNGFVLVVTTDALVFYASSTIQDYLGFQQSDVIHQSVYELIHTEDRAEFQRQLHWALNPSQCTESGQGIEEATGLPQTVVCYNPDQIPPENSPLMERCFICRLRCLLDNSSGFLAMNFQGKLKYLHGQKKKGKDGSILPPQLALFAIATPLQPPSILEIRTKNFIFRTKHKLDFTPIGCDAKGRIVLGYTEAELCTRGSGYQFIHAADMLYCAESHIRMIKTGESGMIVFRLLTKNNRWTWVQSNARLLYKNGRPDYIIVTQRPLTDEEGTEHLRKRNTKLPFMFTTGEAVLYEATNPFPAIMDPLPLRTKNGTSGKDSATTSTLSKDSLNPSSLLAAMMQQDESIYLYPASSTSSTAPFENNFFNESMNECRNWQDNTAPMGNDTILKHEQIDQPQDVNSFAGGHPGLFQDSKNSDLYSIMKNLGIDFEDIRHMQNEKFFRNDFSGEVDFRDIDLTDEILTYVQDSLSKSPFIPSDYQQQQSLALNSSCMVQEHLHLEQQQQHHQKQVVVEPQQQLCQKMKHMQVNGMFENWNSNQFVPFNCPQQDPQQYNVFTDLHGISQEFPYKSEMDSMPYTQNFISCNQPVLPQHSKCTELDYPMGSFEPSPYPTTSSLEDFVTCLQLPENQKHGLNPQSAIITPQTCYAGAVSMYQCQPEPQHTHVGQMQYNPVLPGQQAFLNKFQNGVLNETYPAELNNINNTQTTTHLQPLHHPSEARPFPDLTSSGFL
The experiment in a line: In vitro assay 1: antagonism in human cell line (AHR transactivation, firefly luciferase reporter, kynurenic acid prestimulated). In kind it is cell-based. The following applies: AHR Antagonism Human IC50 [M], firefly luciferase reporter. In outline: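 Antagonism measured as loss of kynurenic acid-driven firefly luciferase from DRE reporter in stably transfected U87 MG cells; constitutive Renilla signal monitors cytotoxicity. Positive/negative control normalization, staurosporine 5 μM with 150 μM kynurenic acid as inhibition control; replicates given as mean or median.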

Experiment [2] concerns the target T2, AHR (Mus musculus, UniProt P30561).
T2 sequence (P30561 1-848 P471L/N533S/M589L): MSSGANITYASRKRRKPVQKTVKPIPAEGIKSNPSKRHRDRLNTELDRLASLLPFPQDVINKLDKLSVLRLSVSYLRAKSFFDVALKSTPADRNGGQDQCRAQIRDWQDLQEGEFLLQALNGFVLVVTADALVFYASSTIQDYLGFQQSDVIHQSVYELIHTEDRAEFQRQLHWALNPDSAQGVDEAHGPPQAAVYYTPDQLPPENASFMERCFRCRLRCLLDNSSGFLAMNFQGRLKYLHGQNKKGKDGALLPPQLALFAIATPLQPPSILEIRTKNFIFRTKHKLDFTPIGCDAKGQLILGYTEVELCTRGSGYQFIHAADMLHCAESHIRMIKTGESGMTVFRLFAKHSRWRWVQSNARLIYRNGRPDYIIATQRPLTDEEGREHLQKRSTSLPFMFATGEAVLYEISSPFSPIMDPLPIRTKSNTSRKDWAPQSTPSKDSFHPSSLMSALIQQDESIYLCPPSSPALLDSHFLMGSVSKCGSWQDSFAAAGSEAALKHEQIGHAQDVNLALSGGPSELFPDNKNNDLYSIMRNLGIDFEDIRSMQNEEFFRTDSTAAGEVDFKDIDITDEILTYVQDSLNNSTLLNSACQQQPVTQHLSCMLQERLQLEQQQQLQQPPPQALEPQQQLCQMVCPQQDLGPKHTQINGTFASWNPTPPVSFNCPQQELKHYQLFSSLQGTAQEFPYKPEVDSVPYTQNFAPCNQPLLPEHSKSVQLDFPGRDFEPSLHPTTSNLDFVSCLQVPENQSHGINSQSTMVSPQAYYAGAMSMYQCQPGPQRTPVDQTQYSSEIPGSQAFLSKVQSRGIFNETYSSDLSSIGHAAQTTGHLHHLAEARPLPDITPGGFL
Nature of the experiment: In vitro assay 3: antagonism in mouse cell line (AHR transactivation, firefly luciferase reporter, kynurenic acid prestimulated). It counts as cell-based. The following applies: Hepa 1c1c7 cells, 200 μM kynurenic acid, 20 hours, firefly luciferase reporter, read-out: AHR Antagonism Mouse IC50. In outline: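 Kynurenic acid-prestimulated mouse reporter cells; stable AHR-inducible firefly luc construct with DRE sites in promoter. No-agonist wells = positive inhibition ctrl. Luminescence normalized to pos/neg ctrls; n>1 reported as mean or median.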

Broadly, the IC50 is the concentration that inhibits the measured activity by half.

With `O=C1NCCNC[C@H]1Nc1nc2c(C(F)(F)F)cccc2c2nc(-c3cnn(C4CC4)c3)nn12` [Example 963, (6R)-6-{[2-(1-cyclopropyl-1H-pyrazol-4-yl)-7-(trifluoromethyl)[1,2,4]triazolo[1,5-c]quinazolin-5-yl]amino}-1,4-diazepan-5-one], the figures for the IC50 at AHR [1] and on AHR [2] were 1.76e-09 M and 4.79 nM, respectively.

Take `O=C1NCCNC[C@H]1Nc1nc2c(Cl)cccc2c2nc(-c3cnn(C4CC4)c3)nn12` [Example 966, (6R)-6-{[7-chloro-2-(1-cyclopropyl-1H-pyrazol-4-yl)[1,2,4]triazolo[1,5-c]quinazolin-5-yl]amino}-1,4-diazepan-5-one]: the IC50 was determined as 9.02e-09 M on AHR [1] and 9.29 nM on AHR [2].

In the case of `O=C1NCCNC[C@H]1Nc1nc2c(Br)cccc2c2nc(-c3cnn(CC4CC4)c3)nn12` [Example 968, (6R)-6-({7-bromo-2-[1-(cyclopropylmethyl)-1H-pyrazol-4-yl][1,2,4]triazolo[1,5-c]quinazolin-5-yl}amino)-1,4-diazepan-5-one], the half-inhibitory concentration (IC50) stood at 6.97e-09 M at AHR [1] and 7.46 nM on AHR [2].

Take `Cc1c(-c2nc3c4cccc(F)c4nc(N[C@@H]4CNCCNC4=O)n3n2)cnn1C` [Example 969, (6R)-6-{[2-(1,5-dimethyl-1H-pyrazol-4-yl)-7-fluoro[1,2,4]triazolo[1,5-c]quinazolin-5-yl]amino}-1,4-diazepan-5-one]: the results for the IC50 at AHR [1] and on AHR [2] were 6.3e-07 M and 298 nM, respectively.

Turning to `CC(C)n1cc(-c2nc3c4cccc(F)c4nc(N[C@@H]4CNCCNC4=O)n3n2)cn1` [Example 971, (6R)-6-({7-fluoro-2-[1-(propan-2-yl)-1H-pyrazol-4-yl][1,2,4]triazolo[1,5-c]quinazolin-5-yl}amino)-1,4-diazepan-5-one], the IC50 is 7.72e-07 M at AHR [1] and 286 nM at AHR [2].

As to `COc1ccc(-c2nc3c4cccc(Br)c4nc(N[C@H]4CNCCNC4=O)n3n2)cc1` [Example 972, (6S)-6-{[7-bromo-2-(4-methoxyphenyl)[1,2,4]triazolo[1,5-c]quinazolin-5-yl]amino}-1,4-diazepan-5-one], the results for the IC50 at AHR [1] and at AHR [2] were 3.09e-08 M and 7.12 nM, respectively.

Take `CCn1cc(-c2nc3c4cccc(Br)c4nc(N[C@@H]4CNCCNC4=O)n3n2)c(C)n1` [Example 974]: the IC50 at AHR [1] came out at 8.12e-10 M; at AHR [2], 1.86 nM.

As for `Cc1nn(C)cc1-c1nc2c3cccc(C(F)(F)F)c3nc(N[C@@H]3CNCCNC3=O)n2n1` [Example 975, (6R)-6-{[2-(1,3-dimethyl-1H-pyrazol-4-yl)-7-(trifluoromethyl)[1,2,4]triazolo[1,5-c]quinazolin-5-yl]amino}-1,4-diazepan-5-one], the figures for the IC50 against AHR [1] and on AHR [2] were 8.67e-10 M and 4.24 nM, respectively.

For the compound `O=C1NCCNC[C@H]1Nc1nc2c(Br)cccc2c2nc(-c3cn[nH]c3)nn12` [Example 976, (6R)-6-{[7-bromo-2-(1H-pyrazol-4-yl)[1,2,4]triazolo[1,5-c]quinazolin-5-yl]amino}-1,4-diazepan-5-one], the IC50 against AHR [1] came to 3.11e-06 M; on AHR [2], 4640 nM.

For `O=C1NCCNC[C@H]1Nc1nc2c(Br)cccc2c2nc(-c3cnn(C(F)F)c3)nn12` [Example 978, (6R)-6-({7-bromo-2-[1-(difluoromethyl)-1H-pyrazol-4-yl][1,2,4]triazolo[1,5-c]quinazolin-5-yl}amino)-1,4-diazepan-5-one], the half-inhibitory concentration (IC50) against AHR [1] worked out at 2.03e-09 M; at AHR [2] it was 1.34 nM.

`Cc1c(-c2nc3c4cccc(Br)c4nc(N[C@@H]4CNCCNC4=O)n3n2)cnn1C` [Example 979, (6R)-6-{[7-bromo-2-(1,5-dimethyl-1H-pyrazol-4-yl)[1,2,4]triazolo[1,5-c]quinazolin-5-yl]amino}-1,4-diazepan-5-one]: the results for the IC50 on AHR [1] and at AHR [2] were 2.13e-08 M and 10.5 nM, respectively.

Regarding `CCn1cc(-c2nc3c4cccc(Br)c4nc(N[C@@H]4CNCCNC4=O)n3n2)cn1` [Example 980, (6R)-6-{[7-bromo-2-(1-ethyl-1H-pyrazol-4-yl)[1,2,4]triazolo[1,5-c]quinazolin-5-yl]amino}-1,4-diazepan-5-one], the IC50 on AHR [1] came to 5.22e-09 M; on AHR [2], 6.35 nM.

Regarding `CC(C)n1cc(-c2nc3c4cccc(Br)c4nc(N[C@@H]4CNCCNC4=O)n3n2)cn1` [Example 981, (6R)-6-({7-bromo-2-[1-(propan-2-yl)-1H-pyrazol-4-yl][1,2,4]triazolo[1,5-c]quinazolin-5-yl}amino)-1,4-diazepan-5-one], the results for the IC50 at AHR [1] and on AHR [2] were 2.69e-09 M and 5.95 nM, respectively.

In the case of `O=C1NCCNC[C@H]1Nc1nc2c(Br)cccc2c2nc(-c3cnn(CC4CCC4)c3)nn12` [Example 982, (6R)-6-({7-bromo-2-[1-(cyclobutylmethyl)-1H-pyrazol-4-yl][1,2,4]triazolo[1,5-c]quinazolin-5-yl}amino)-1,4-diazepan-5-one], the results for the IC50 against AHR [1] and at AHR [2] were 9.42e-09 M and 20.6 nM, respectively.

With `Cn1cc(-c2nc3c4cccc(Br)c4nc(N[C@H]4CNCCNC4=O)n3n2)cn1` [Example 983, (6S)-6-{[7-bromo-2-(1-methyl-1H-pyrazol-4-yl)[1,2,4]triazolo[1,5-c]quinazolin-5-yl]amino}-1,4-diazepan-5-one], the IC50 at AHR [1] worked out at 8.18e-08 M; at AHR [2] it was 189 nM.

In the case of `CC(C)n1cc(-c2nc3c4cccc(Br)c4nc(N[C@H]4CNCCNC4=O)n3n2)cn1` [Example 984, (6S)-6-({7-bromo-2-[1-(propan-2-yl)-1H-pyrazol-4-yl][1,2,4]triazolo[1,5-c]quinazolin-5-yl}amino)-1,4-diazepan-5-one], the IC50 stood at 3.84e-08 M against AHR [1] and 41.2 nM on AHR [2].

With `C[C@@H](Nc1nc2c(Br)cccc2c2nc(-c3cnn(C)c3)nn12)C(=O)N1CCNCC1` [Example 985, (2R)-2-{[7-bromo-2-(1-methyl-1H-pyrazol-4-yl)[1,2,4]triazolo[1,5-c]quinazolin-5-yl]amino}-1-(piperazin-1-yl)propan-1-one hydrogen chloride (1/1)], the IC50 is 6.49e-08 M against AHR [1] and 95 nM on AHR [2].

For the compound `CNCCNC(=O)[C@@H](C)Nc1nc2c(Br)cccc2c2nc(-c3ccc(OC)cc3)nn12` [Example 987, N^2-[7-bromo-2-(4-methoxyphenyl)[1,2,4]triazolo[1,5-c]quinazolin-5-yl]-N-[2-(methylamino)ethyl]-D-alaninamide-hydrogen chloride (1/1)], the IC50 amounted to 8.61e-09 M at AHR [1] and 13.2 nM on AHR [2].

Take `COc1ccc(-c2nc3c4ccccc4nc(N[C@H](C)C(=O)N4CCNCC4)n3n2)cc1` [Example 988, (2R)-2-{[2-(4-methoxyphenyl)[1,2,4]triazolo[1,5-c]quinazolin-5-yl]amino}-1-(piperazin-1-yl)propan-1-one-hydrogen chloride (1/1)]: the IC50 is 1.49e-08 M on AHR [1] and 13.8 nM on AHR [2].

With `CNCCNC(=O)[C@@H](C)Nc1nc2c(Br)cccc2c2nc(-c3cnn(C)c3)nn12` [Example 989, N^2-[7-bromo-2-(1-methyl-1H-pyrazol-4-yl)[1,2,4]triazolo[1,5-c]quinazolin-5-yl]-N-[2-(methylamino)ethyl]-D-alaninamide], the figures for the IC50 against AHR [1] and on AHR [2] were 5.18e-07 M and 399 nM, respectively.
